# From US20230219904A1 (SYNGENTA CROP PROTECTION AG, priority 2020, published 2023)
# Experiments:
# Type in all cases: in vivo
# Conditions in all cases: applied at 125 g/ha, evaluated after 13 days
# [1] = system: Abutilon theophrasti (ABUTH); assay: Pre-emergence herbicidal glasshouse test (Table B1)
# Description: (§1) Seeds of a variety of test species are sown in standard soil in pots (Lolium perenne (LOLPE), Amaranthus retoflexus (AMARE), Abutilon theophrasti (ABUTH), Setaria faberi (SETFA), Echinochloa crus-galh (ECHCG), Ipomoea hederacea (IPOHE)). After cultivation for one day (pre-emergence) or after 8 days cultivation (post-emergence) under controlled conditions in a glasshouse (at 24/16° C., day/night; 14 hours light; 65% humidity), the plants are sprayed with an aqueous spray solution derived from the formulation of the technical active ingredient in acetone/water (50:50) solution containing 0.5% Tween 20 (polyoxyethelyene sorbitan monolaurate, CAS RN 9005-64-5). Compounds are applied at 500 g/h unless otherwise indicated. The test plants are then grown in a glasshouse under controlled conditions in a glasshouse (at 24/16° C., day/night; 14 hours light; 65% humidity) and watered twice daily. After 13 days for pre and post-emergence, the test is evaluated for the percentage damage caused to the plant. The biological activities are shown in the following table on a five-point scale (5=80-100%; 4=60-79%; 3=40-59%; 2=20-39%; 1=0-19%).
# [2] = system: Amaranthus retoflexus (AMARE); assay: as above
# Description: as §1
# [3] = system: Echinochloa crus-galh (ECHCG); assay: as above
# Description: as §1
# [4] = system: Ipomoea hederacea (IPOHE); assay: as above
# Description: as §1
# Setaria faberi (SETFA) [5] = assay: as above
# Description: as §1
# [6] = system: Abutilon theophrasti (ABUTH); assay: Post-emergence herbicidal glasshouse test (Table B1)
# Description: as §1
# [7] = system: Amaranthus retoflexus (AMARE); assay: as above
# Description: as §1
# [8] = system: Ipomoea hederacea (IPOHE); assay: as above
# Description: as §1
# Setaria faberi (SETFA) [9] = assay: as above
# Description: as §1
# [10] = system: Echinochloa crus-galh (ECHCG); assay: as above
# Description: as §1
SMILES,"PRE Application ABUTH, percentage damage on five-point scale [1]","PRE Application AMARE, percentage damage on five-point scale [2]","PRE Application ECHCG, percentage damage on five-point scale [3]","PRE Application IPOHE, percentage damage on five-point scale [4]","PRE Application SETFA, percentage damage on five-point scale (Setaria faberi (SETFA) [5])","POST Application ABUTH, percentage damage on five-point scale [6]","POST Application AMARE, percentage damage on five-point scale [7]","POST Application IPOHE, percentage damage on five-point scale [8]","POST Application SETFA, percentage damage on five-point scale (Setaria faberi (SETFA) [9])","POST Application ECHCG, percentage damage on five-point scale [10]"
Cn1nnnc1NC(=O)c1ccc(OC(F)F)c(NC(=O)c2ncc(Cl)cc2Cl)c1Cl [Compound 1.087],4 (4=60-79%),5 (5=80-100%),1 (1=0-19%),4 (4=60-79%),4 (4=60-79%),4 (4=60-79%),4 (4=60-79%),4 (4=60-79%),4 (4=60-79%),
CCOCCC(=O)Nc1c(OC(F)(F)F)ccc(C(=O)Nc2nnnn2CC)c1Cl [Compound 1.077],5 (5=80-100%),5 (5=80-100%),5 (5=80-100%),5 (5=80-100%),3 (3=40-59%),,5 (5=80-100%),4 (4=60-79%),5 (5=80-100%),5 (5=80-100%)
COCCCC(=O)Nc1c(OC(F)(F)F)ccc(C(=O)Nc2nnnn2C)c1Cl [Compound 1.058],5 (5=80-100%),5 (5=80-100%),5 (5=80-100%),5 (5=80-100%),3 (3=40-59%),,4 (4=60-79%),4 (4=60-79%),4 (4=60-79%),5 (5=80-100%)
Cn1nnnc1NC(=O)c1ccc(OC(F)F)c(NC(=O)c2cc(C(F)(F)F)ccn2)c1Cl [Compound 1.053],5 (5=80-100%),5 (5=80-100%),4 (4=60-79%),4 (4=60-79%),4 (4=60-79%),,5 (5=80-100%),4 (4=60-79%),5 (5=80-100%),3 (3=40-59%)
CCOC(C)C(=O)Nc1c(OC(F)(F)F)ccc(C(=O)Nc2nnnn2CC)c1Cl (stereo not drawn) [Compound 1.073],5 (5=80-100%),5 (5=80-100%),5 (5=80-100%),5 (5=80-100%),5 (5=80-100%),,5 (5=80-100%),4 (4=60-79%),5 (5=80-100%),5 (5=80-100%)
CCC(=O)Nc1c(OC(F)(F)F)ccc(C(=O)Nc2nnnn2C)c1C [Compound 1.078],5 (5=80-100%),5 (5=80-100%),5 (5=80-100%),4 (4=60-79%),4 (4=60-79%),,5 (5=80-100%),4 (4=60-79%),5 (5=80-100%),5 (5=80-100%)
CCn1nnnc1NC(=O)c1ccc(OC(F)(F)F)c(NC(=O)COC(C)C)c1Cl [Compound 1.072],5 (5=80-100%),5 (5=80-100%),5 (5=80-100%),5 (5=80-100%),4 (4=60-79%),,4 (4=60-79%),4 (4=60-79%),5 (5=80-100%),5 (5=80-100%)
